US20250249001A1, “METHODS OF TREATING SUBSTANCE USE DISORDER WITH 4-(3-CYANOPHENYL)-6-PYRIDINYLPYRIMIDINE MGLU5 NEGATIVE ALLOSTERIC MODULATORS” (Tempero Bio, Inc., priority 2022, published 2025)

Legend:
[1] = tested on: cocaine-induced CPP in male SD rats; assay type: in vivo, Sprague Dawley rats; settings: cocaine 10 mg/kg IP on days 3, 5, 7, 9; day 10 bias test
Procedure: Animals: Male Sprague Dawley rats (Envigo, IN, 275-299 g) were group housed upon arrival (2 per cage). All rats were examined and handled to assure adequate health and suitability. During the study, a 12/12 light/dark cycle was maintained (lights switched on at 7:00 am). The room temperature was maintained between […] and 23° C. with a relative humidity maintained around 50%. Chow (LabDiet #5001) and water were provided ad libitum for the duration of the study. The test was performed during the animal's light cycle phase.
Cocaine (10 mg/kg) was dissolved in saline and injected IP at a dose volume of 1 ml/kg. Cocaine was administered on training days 3, 5, 7 and 9 immediately prior to training.
3-((2-Methyl-4-thiazolyl)ethynyl)pyridine (MTEP, 3 mg/kg), was dissolved in saline and injected IP on day 10 (bias test) at a dose volume of 1 ml/kg 30 minutes prior to testing.
Compound 1 (1, 3 and 10 mg/kg) was formulated in 10% Solutol HS15 and 90% (10% aqueous 2-hydroxypropyl-β-cyclodextrin) and injected IP on day 10 (bias test) at a dose volume of 2 ml/kg. Compound 1 was administered 30 minutes prior to testing.
The chamber used in this study contained two compartments [(60 cm (L)×40 cm (W)×24 cm (H)]. The compartment used for each animal and drug pairing was assigned and counterbalanced in advance and adjusted as necessary in the rebalancing procedure after day 1 (see details below). Within the chamber, visual and physical features were used to create the two distinct compartments. For example, one compartment may have a flat plastic floor with white stripes and the other may have a textured floor and black stripes. The chambers were cleaned with 70% alcohol in between runs.
Testing sessions were recorded on days 1 and 10 to determine time spent (seconds) in each chamber.
Day 1 Pre-conditioning/Habituation: Animals are allowed to explore the entire testing chamber freely for 20 min. Animals that display a strong preference for one compartment (>75% time spent in one compartment) are excluded.
Rebalancing Procedure: Animals are rebalanced following day 1 scoring if the difference between groups for time spent in one compartment is greater than 15%.
Days 2-9 Conditioning: All animals are treated with saline on days 2, 4, 6, and 8 and with cocaine or saline on days 3, 5, 7, and 9 depending on their assigned group. Animals are confined to their assigned compartment (saline- or cocaine-paired compartment) for 20 minutes following dosing.
Day 10 Post-conditioning bias test: Animals are dosed once with either saline, MTEP or Compound 1 (1, 3 and 10 mg/kg) according to their assigned. Following dosing, animals are allowed to explore the testing chamber freely for 20 minutes with the compartment dividing door open. Their activity exploring the chamber is recorded for analysis.
Statistical Analysis: Statistical analysis was conducted using GraphPad Prism 9. Scorers blinded to the treatment groups scored the amount of time each animal spent exploring each chamber on days 1 and 10. For bias test data, a one-way analysis of variance (ANOVA) followed by Dunnett's post hoc test was used. Significance was set at p<0.05 and values exceeding two standard deviations of the mean were considered statistical outliers and were excluded from the analysis. Additionally, if an animal spent >85% or <15% of the time in one compartment even without any obvious signs of sedation or locomotor dysfunction, they were excluded from the analysis.

[2] = tested on: voluntary home-cage alcohol drinking by Wistar rats; experiment: Home-cage two-bottle choice alcohol drinking, acute treatment; assay type: in vivo
Procedure: Animals: Male Wistar rats (Charles River Laboratories, INC) were used in these studies. Rat housing and testing was conducted at the University of North Carolina at Chapel Hill (UNC-CH) School of Medicine in a state-of-the-art rodent vivarium approved by the Association for Assessment and Accreditation of Laboratory Animal Care International (AAALAC). Rat health was monitored daily by study investigators and veterinarians in the Division of Comparative Medicine UNC. All experimental procedures were carried out in accordance with the NIH Guide to Care and Use of Laboratory Animals (Committee for the Update of the Guide for the Care and Use of Laboratory Animals, 2011) and institutional guidelines.
Rats were housed individually in standard Plexiglas cages with standard rodent food and water available ad libitum. Upon arrival from the vendor, rats were given 7 days to acclimate to the vivarium during which they were weighed and handled by an investigator each day to monitor general health and habituate them to human contact. Rats were then weighed each day within 1-h of experimental procedures to calculate drug dosages relative to body weight. […] The colony was maintained at […] on a 12-hour light/dark cycle, with the lights on from 10 AM-10 PM. All behavioral experiments were conducted during the light portion of the light cycle.
Home-cage alcohol drinking method. Oral alcohol and water intake were examined using a two-bottle choice protocol, which is standard in the field and commonly used in our laboratory. Male Wistar rats (n=12) were first adapted to drinking from a 50 ml conical tube fitted with a standard stainless-steel ball bearing sipper tube that limits spillage. Then, two bottles were place on the cage daily. One bottle contained an alcohol solution and the other contained water. Bottles containing fresh solutions were weighed daily before and after a 24 hr access period. After drug treatment, bottles were weighed after 1 hr and 24 hrs of access. Each week, rats had 4-5 days of sweetened alcohol and water available and the remaining days only water.
Briefly, rats were first exposed to alcohol (10% v/v)+sucrose (5% w/v). versus water in the two bottles. Then, over a period of 6-weeks, the concentrations of alcohol and sucrose were gradually adjusted to alcohol (8% v/v)+sucrose (2% w/v) to achieve intake of pharmacologically relevant doses of alcohol. Rats were maintained at this concentration for the duration of the experiment for both acute (3.1.a) and chronic (3.1.b) home-cage drinking studies. Use of sweetened alcohol solutions in preclinical research provides face validity to the binge-intoxication stage of alcohol addiction in humans where sweeteners are commonly added to alcohol.
Compound 1 treatment. After establishing baseline intake of sweetened alcohol and water, rats were habituated to i.p. injections. All rats (N=12) were administered 3 habituation injections of vehicle (10% w/v kolliphor in BCD (10%)) prior to the Compound 1 dose response curve and alcohol intake was measured. Then, the Compound 1 dose response curve was conducted with dose order randomized according to a modified Latin-Square design. Rats were given a minimum of 1-2 days between injections to ensure normal drinking was re-established in absence of drug administration. Each dose of Compound 1 (0-10 mg/kg) was administered via i.p. injection and rats were placed back in the home-cage for 1 hr prior to the return of sweetened alcohol and water. Alcohol intake was measured after 1-h and 24-hrs of access in grams by weighing the drinking bottles. Data were excluded from 1 rat that emptied both bottles fully each day without drinking the solutions; thus, results are presented for a final group of N=11 rats.
Efficacy comparisons to MPEP and Naltrexone. […]

[3] = tested on: operant alcohol self-administration in Wistar rats; experiment: Operant alcohol self-administration (FR-1), acute treatment; assay type: in vivo; settings: 3 mg/kg IP, 1-h pretreatment
Text: Twelve operant conditioning chambers designed for rats (30.5 cm×24.1 cm×21.0 cm; Med Associates, Georgia, VT) were located within sound-attenuating cubicles in a devoted room to limit extraneous potential impact by extraneous environmental variables. Each cubicle was equipped with an exhaust fan that provided ventilation and masked external sounds. The chambers were electronically interfaced to a Microsoft Windows based computer that was programmed using investigator developed software to control sessions and record number of lever press responses at 100-ms intervals.
The right wall of each chamber contained a liquid receptacle and a response lever (Med Associates) that was termed the active lever. Lever press responses on the active lever activated a syringe pump (PHM-100, Med Associates) that delivered 0.1 ml of alcohol solution (ethanol 8% v/v+sucrose 2% w/v) into the receptacle over a 1.66-s period. Head entries into the liquid receptacle were recorded when an infrared photo beam was broken. A stimulus light located above the response lever was illuminated during pump activation. Lever presses during reinforcer delivery were recorded but produced no programmed consequence. […] Behavior on this lever serves as a control for motor disruptions and other nonspecific effects of test compounds. […]
Testing the efficacy of Compound 1 to reduce the reinforcing, or rewarding, effects of alcohol. Following establishment of stable baseline self-administration behavior, effects of pre-session treatment with the novel mGluR5 negative allosteric modulator Compound 1 (0, 0.3, 1, 3, and 10 mg/kg, IP) were evaluated on operant alcohol self-administration behavior (n=12 rats). […] Parameters of operant performance were measured, including total lever press responses, number of headpokes into the liquid receptacle, and rate of operant responding, which is a direct measure of positive reinforcement function. […]

**Q.** Which “Percent time in compound-paired compartment, Mean Diff., Cocaine - Saline vs. Saline - Saline” value [1] does the source give for `COC(=O)[C@H]1[C@@H](OC(=O)c2ccccc2)C[C@@H]2CC[C@H]1N2C` [Cocaine] here?
**A.** Its value is 13.86%.

**Q.** What about the “Preference Scores (time difference drug-paired minus saline-paired), Mean Diff., Cocaine - Saline vs. Saline - Saline” value [1] of the same compound?
**A.** The value was 332.9 s.

**Q.** Which results are given for `O=C1CC[C@@]2(O)[C@H]3Cc4ccc(O)c5c4[C@@]2(CCN3CC2CC2)[C@H]1O5` [Naltrexone, reference compound]?
**A.** H2O intake after 24-hr access ([2]; 3 mg/kg i.p., Compound 1 or comparison compounds): no effect; water intake after 1-hr access ([2]; Compound 1 0-10 mg/kg, or Compound 1, MPEP, Naltrexone 3 mg/kg i.p.): did not reach statistical significance; alcohol intake at the 24-hr measurement interval, comparison of equivalent doses ([2]; each drug 3 mg/kg i.p. acute): only Compound 1 (3 mg/kg) maintained efficacy; alcohol drinking at 1-hr of access vs vehicle control, positive control comparison ([2]; each drug 3 mg/kg i.p. acute, N=11): significantly decreased alcohol drinking; EtOH reinforced responses vs vehicle, multiple comparisons [3]: reduced EtOH reinforced responses
